US11926613B2, “Kinase inhibitors for the treatment of central and peripheral nervous system disorders” (UNIVERSITY OF MIAMI, priority 2017, dated 2024)

Experiments:
Primary Neurons = experiment: HCS neurite outgrowth assay (High Content Screening with Primary Neurons); assay type: cell-based; settings: Primary neuron
[1] = test system: neurons from hippocampi of E18 rat embryos; experiment: Neurite growth length (% NTL) in cultured E18 rat hippocampal neurons, 9-point dose response, 48 hours; assay type: cell-based; settings: Rattus norvegicus, Neuron, 48 h; for activity at 0.078 µM: 78 nM; for activity at 0.156 µM: 156 nM; for activity at 0.312 µM: 312 nM; for activity at 0.625 µM: 625 nM
Outline: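 Dissociated E18 rat hippocampal neurons at 1500 cells/well on PDL were exposed 48 h to 9 concentrations from 20 μM down to 0.078125 μM. After PFA fixation and βIII-tubulin/Hoechst staining, ArrayScan imaging traced neurites in at least 200–300 neurons per condition to give % NTL.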

| Compound | EC50 (Primary Neurons) [µM] | activity at 0.078 µM [1] [%] | activity at 0.156 µM [1] [%] | activity at 0.312 µM [1] [%] | activity at 0.625 µM [1] [%] | activity at 1.25 µM [1] [%] | activity at 2.5 µM [1] [%] | activity at 5 µM [1] [%] | activity at 10 µM [1] [%] | activity at 20 µM [1] [%] |
| --- | --- | --- | --- | --- | --- | --- | --- | --- | --- | --- |
| COc1ccc(O)c(C(=O)c2ccc(C(=O)N[C@@H]3CNC[C@H]3NC(=O)c3ccc4c(cnn4C)c3)cc2)c1F [Example A53, N-[(3R,4R)-4-[4-(2-fluoro-6-hydroxy-3-methoxybenzoyl)benzamido]pyrrolidin-3-yl]-1-methyl-1H-indazole-5-carboxamide] | 0.814 | 90 | 82.5 | 79.3 | 76.3 | 85.8 | 88.5 | 90.1 | 91.9 | 70 |
| COc1ccc(O)c(C(=O)c2ccc(C(=O)N[C@@H]3CNC[C@H]3NC(=O)c3ccnc(N)c3)cc2)c1F [Example A54, 2-amino-N-[(3R,4R)-4-[4-(2-fluoro-6-hydroxy-3-methoxybenzoyl)benzamido]pyrrolidin-3-yl]pyridine-4-carboxamide] | > 20 | 83.1 | 79.9 | 84.3 | 84.1 | 94.7 | 105 | 120 | 151 | 228 |
| COc1ccc(O)c(C(=O)c2ccc(C(=O)N[C@@H]3CNC[C@H]3NC(=O)c3ccnc4[nH]ccc34)cc2)c1F [Example A56, N-[(3R,4R)-4-[4-(2-fluoro-6-hydroxy-3-methoxybenzoyl)benzamido]pyrrolidin-3-yl]-1H-pyrrolo[2,3-b]pyridine-4-carboxamide] | 8.54 | 128 | 137 | 131 | 133 | 165 | 196 | 267 | 375 | 488 |
| COc1ccc(O)c(C(=O)c2ccc(C(=O)N[C@@H]3CNC[C@H]3NC(=O)c3ccc4cn[nH]c4c3)cc2)c1F [Example A57, N-[(3R,4R)-4-[4-(2-fluoro-6-hydroxy-3-methoxybenzoyl)benzamido]pyrrolidin-3-yl]-1H-indazole-6-carboxamide] | > 20 | 92.2 | 97.8 | 95.1 | 93.9 | 97.3 | 93.5 | 105 | 107 | 111 |
| COc1ccc(O)c(C(=O)c2ccc(C(=O)N[C@@H]3CNC[C@H]3NC(=O)c3ccc4[nH]nnc4c3)cc2)c1F [Example A58, N-[(3R,4R)-4-[4-(2-fluoro-6-hydroxy-3-methoxybenzoyl)benzamido]pyrrolidin-3-yl]-1H-1,2,3-benzotriazole-5-carboxamide] | 5.27 | 88.3 | 87.6 | 79.3 | 75.7 | 76.3 | 84.8 | 85.3 | 89.5 | 88.6 |
| COc1ccc(O)c(C(O)c2ccc(C(=O)N[C@@H]3CNC[C@H]3NC(=O)c3ccncc3)cc2)c1F (stereo partly drawn) [Example A59, N-[(3R,4R)-4-{4-[(2-fluoro-6-hydroxy-3-methoxyphenyl)(hydroxy)methyl]benzamido}pyrrolidin-3-yl]pyridine-4-carboxamide] | 7.13 | 91.9 | 82.8 | 73.6 | 82.3 | 76.7 | 91.2 | 95.4 | 111 | 106 |
| Cc1cc(C(=O)N[C@@H]2CNC[C@H]2NC(=O)c2ccncc2)ccc1C(=O)c1ccccc1O [Example A64, N-[(3R,4R)-4-[4-(2-hydroxybenzoyl)-3-methylbenzamido]pyrrolidin-3-yl]pyridine-4-carboxamide] | 0.593 | 91.3 | 99.8 | 107 | 105 | 116 | 129 | 124 | 121 | 126 |
| O=C(N[C@@H]1CNC[C@H]1NC(=O)c1ccc(C(=O)c2ccccc2O)cc1Cl)c1ccncc1 [Example A65, N-[(3R,4R)-4-[2-chloro-4-(2-hydroxybenzoyl)benzamido]pyrrolidin-3-yl]pyridine-4-carboxamide] | 7.11 | 108 | 117 | 123 | 113 | 126 | 129 | 128 | 150 | 161 |
| Nc1nccc(C(=O)N[C@@H]2CNC[C@H]2NC(=O)c2ccc(C(=O)c3ccccc3O)c(Cl)c2)n1 [Example A66, 2-amino-N-[(3R,4R)-4-[3-chloro-4-(2-hydroxybenzoyl)benzamido]pyrrolidin-3-yl]pyrimidine-4-carboxamide] | 2.33 | 113 | 107 | 122 | 111 | 122 | 129 | 129 | 145 | 161 |
| O=C(N[C@@H]1CNC[C@H]1NC(=O)c1ccc(C(=O)c2ccccc2O)c(Cl)c1)c1ccncc1 [Example A67, N-[(3R,4R)-4-[3-chloro-4-(2-hydroxybenzoyl)benzamido]pyrrolidin-3-yl]pyridine-4-carboxamide] | > 20 | 94.2 | 97.9 | 104 | 104 | 112 | 106 | 108 | 120 | 128 |
| COc1cc(C(=O)c2ccccc2O)ccc1C(=O)N[C@@H]1CNC[C@H]1NC(=O)c1ccnc(N)n1 [Example A68, 2-amino-N-[(3R,4R)-4-[4-(2-hydroxybenzoyl)-2-methoxybenzamido]pyrrolidin-3-yl]pyrimidine-4-carboxamide] | 1.24 | 101 | 95.7 | 94.8 | 91.2 | 102 | 101 | 96.8 | 102 | 94.3 |
| COc1cc(C(=O)c2ccccc2O)ccc1C(=O)N[C@@H]1CNC[C@H]1NC(=O)c1ccncc1 [Example A69, N-[(3R,4R)-4-[4-(2-hydroxybenzoyl)-2-methoxybenzamido]pyrrolidin-3-yl]pyridine-4-carboxamide] | 0.401 | 94.3 | 96.2 | 96 | 107 | 110 | 112 | 112 | 119 | 117 |
| Nc1nccc(C(=O)N[C@@H]2CNC[C@H]2NC(=O)c2ccc(C(=O)c3cccc(Cl)c3O)cc2)n1 [Example A70, 2-amino-N-[(3R,4R)-4-[4-(3-chloro-2-hydroxybenzoyl)benzamido]pyrrolidin-3-yl]pyrimidine-4-carboxamide] | > 20 | 103 | 107 | 115 | 122 | 123 | 117 | 122 | 135 | 145 |
| O=C(N[C@@H]1CNC[C@H]1NC(=O)c1ccc(C(=O)c2cccc(Cl)c2O)cc1)c1ccncc1 [Example A71, N-[(3R,4R)-4-[4-(3-chloro-2-hydroxybenzoyl)benzamido]pyrrolidin-3-yl]pyridine-4-carboxamide] | 2.15 | 94.8 | 99 | 105 | 109 | 102 | 109 | 119 | 117 | 124 |
| COc1cccc(C(=O)c2ccc(C(=O)N[C@@H]3CNC[C@H]3NC(=O)c3ccnc(N)n3)cc2)c1O [Example A72, 2-amino-N-[(3R,4R)-4-[4-(2-hydroxy-3-methoxybenzoyl)benzamido]pyrrolidin-3-yl]pyrimidine-4-carboxamide] | > 20 | 96.4 | 94 | 97.7 | 108 | 106 | 105 | 113 | 127 | 157 |
| COc1cccc(C(=O)c2ccc(C(=O)N[C@@H]3CNC[C@H]3NC(=O)c3ccncc3)cc2)c1O [Example A73, N-[(3R,4R)-4-[4-(2-hydroxy-3-methoxybenzoyl)benzamido]pyrrolidin-3-yl]pyridine-4-carboxamide] | > 20 | 96.7 | 110 | 102 | 105 | 125 | 117 | 121 | 136 | 159 |
